Experiments:
EMT6 tumor cells [1] = assay: Drug efficacy test with combined use of PD-1 in tumor-bearing model mouse with subcutaneous transplantation of EMT6; assay type: in vivo
From the text: As the test substance, the same substance as in Example 1 was used.
Changes in tumor volume are shown in FIG. 12 (mean value) and FIGS. 13 to 20 (on the basis of an individual). […] In Table 5 and Table 6, “Number of test subjects in complete remission” means that the tumor volume was zero.

[2] = system: intratumoral immune cells (CD8-positive T cells, M1 and M2 macrophages) of EMT6 tumors; assay: Changes in immune cell composition in tumor in tumor-bearing model mouse with subcutaneous transplantation of EMT6 (flow cytometry); assay type: in vivo; conditions: tumors excised Days 16 and 17 after start; Gem 240 mg/kg or Lipo 4 mg/kg 3 times; CTLA-4 10 mg/kg or PBS 5 times
From the text: It is said that a high percentage of CD8-positive T cells in the tumor and a high ratio of M1 macrophages compared to M2 macrophages result in an antitumor environment (reference: J Clin Invest. 2012; 122(3); 787-95).
Tumors were excised on Days 16 and 17 after the start of administration and used for analysis of intratumoral immune cells.
The excised tumor was made into a cell-dispersed state using Tumor Dissociation Kit, mouse (catalog number 130-096-730, manufactured by Miltenyi Biotec GmbH), and intratumoral immune cells were isolated using CD45 (TIL) MicroBeads (catalog number 130-110-618, manufactured by Miltenyi Biotec GmbH). Dead cells were stained using LIVE/DEAD (trademark) Fixable Yellow Dead Cell Stain Kit (catalog number L34968, manufactured by Invitrogen Corporation), and various immune cell markers were stained using the following fluorescently labeled antibodies. […] The samples were analyzed using a flow cytometer (Attune NxT, manufactured by Invitrogen Corporation). CD8-positive T cells (CD3-positive, CD8-positive), M1 macrophages (CD11b-positive, F4/80-positive, MHC Class II-positive, CD206-negative), and M2 macrophages (CD11b-positive, F4/80-positive, MHC Class II-negative, CD206-positive) were identified, and the percentage of each cell group was calculated.

EMT6 tumor cells [3] = assay: Drug efficacy test with combined use of PD-L1 in tumor-bearing model mouse with subcutaneous transplantation of EMT6
From the text: An anti-PD-L1 antibody (hereinafter, also referred to as PD-L1), gemcitabine (hereinafter, also referred to as Gem), and gemcitabine-containing liposome composition (hereinafter, also referred to as liposome composition according to the embodiment of the present invention) were used as test substances. Gemcitabine hydrochloride (manufactured by Teva Pharmaceutical Industries Ltd.) dissolved in physiological saline was used as Gem. The liposome composition according to the embodiment of the present invention was diluted with a 5% glucose solution for injection (hereinafter, also referred to as 5% Glu; 0.05 g/mL) prior to use.
3×10^6 EMT6 cells, which are a mouse breast cancer cell line, were subcutaneously transplanted into the flank of female Balb mice to form subcutaneous tumors. Using the tumor volume as an index, inhibitory effects of combined administration of PD-L1 and Gem and combined administration of PD-L1 and the liposome composition according to the embodiment of the present invention on subcutaneous tumors were evaluated.
PD-L1 and an isotype control antibody thereof (hereinafter, also referred to as Iso antibody) were intraperitoneally administered twice a week for a total of 3 weeks, and Gem, the liposome composition according to the embodiment of the present invention, and a solvent therefor (5% Glu) were administered once a week by tail vein administration for a total of 3 weeks.
After the 3-week administration was completed, the drug was discontinued, and the tumor volume measurement was continued for 2 weeks. Test subjects with a tumor volume of more than 10% of body weight were euthanized during the test, and drug efficacy analysis was carried out based on the survival rate (tumor-free survival %).
Group configuration was set to a combination of 5% Glu and Iso antibody (10 mg/kg) for Group 1, a combination of 5% Glu and PD-L1 (10 mg/kg) for Group 2, a combination of Gem (240 mg/kg) and Iso antibody (10 mg/kg) for Group 3, a combination of Gem (240 mg/kg) and PD-L1 (10 mg/kg) for Group 4, a combination of the liposome composition according to the embodiment of the present invention (1 mg/kg) and Iso antibody (10 mg/kg) for Group 5, a combination of the liposome composition according to the embodiment of the present invention (1 mg/kg) and PD-L1 (10 mg/kg) for Group 6, a combination of the liposome composition according to the embodiment of the present invention (4 mg/kg) and Iso antibody (10 mg/kg) for Group 7, and a combination of the liposome composition according to the embodiment of the present invention (4 mg/kg) and PD-L1 (10 mg/kg) for Group 8.
(§1) In addition, Lipo (1) and Lipo (4) mean that the liposome composition according to the embodiment of the present invention was administered to a subject at a dose of 1 mg/kg and a dose of 4 mg/kg, respectively.
As a statistical analysis of an effect of prolonging the survival time, a log-rank test was carried out, and a p value of less than 5% between the groups was determined to have a statistically significant difference.

EMT6 tumor cells [4] = assay: Drug efficacy test with combined use of anti-CTLA-4 antibody in tumor-bearing model mouse with subcutaneous transplantation of EMT6
Description: The anti-CTLA-4 antibody (hereinafter, also referred to as CTLA-4), Gem, and the liposome composition according to the embodiment of the present invention were used as test substances. […] The liposome composition according to the embodiment of the present invention was diluted with 5% Glu prior to use.
1.7×10^6 EMT6 cells, which are a mouse breast cancer cell line, were subcutaneously transplanted into the flank of female Balb/c mice to form subcutaneous tumors. Using the tumor volume as an index, inhibitory effects of combined administration of CTLA-4 and Gem and combined administration of CTLA-4 and the liposome composition according to the embodiment of the present invention on subcutaneous tumors were evaluated.
CTLA-4 and a solvent therefor (PBS) were intraperitoneally administered twice a week for a total of 3 weeks, and Gem, the liposome composition according to the embodiment of the present invention, and a solvent therefor (5% Glu) were administered once a week by tail vein administration for a total of 3 weeks.
After the 3-week administration was completed, the drug was discontinued, and the tumor volume measurement was continued for 4 weeks. Test subjects with a tumor volume of more than 10% of body weight were euthanized during the test, and drug efficacy analysis was carried out based on the survival rate (tumor-free survival %).
Group configuration was set to a combination of 5% Glu and PBS for Group 1, a combination of 5% Glu and CTLA-4 (10 mg/kg) for Group 2, a combination of Gem (240 mg/kg) and PBS for Group 3, a combination of Gem (240 mg/kg) and CTLA-4 (10 mg/kg) for Group 4, a combination of the liposome composition according to the embodiment of the present invention (1 mg/kg) and PBS for Group 5, a combination of the liposome composition according to the embodiment of the present invention (1 mg/kg) and CTLA-4 (10 mg/kg) for Group 6, a combination of the liposome composition according to the embodiment of the present invention (4 mg/kg) and PBS for Group 7, and a combination of the liposome composition according to the embodiment of the present invention (4 mg/kg) and CTLA-4 (10 mg/kg) for Group 8.
as §1
The survival rate (tumor-free survival %) in a case where a test subject with a tumor volume of more than 10% of body weight was euthanized was calculated, and the results of a survival curve by the Kaplan-Meier method are shown in FIG. 29. […] As a statistical analysis of an effect of prolonging the survival time, a log-rank test was carried out, and a p value of less than 5% between the groups was determined to have a statistically significant difference. Graghpad Prism version 5.03 was used for the calculation of median survival calculated from the survival curve by Kaplan-Meier method and the statistical analysis.

[5] = Gem 240 mg/kg or Lipo 1 mg/kg, CTLA-4 10 mg/kg or PBS

With `Nc1ccn([C@@H]2O[C@H](CO)[C@@H](O)C2(F)F)c(=O)n1` [Gem, (+)-2′-deoxy-2′,2′-difluorocytidine] the “tumor growth inhibitory effect (in words)” value (EMT6 tumor cells [1]; Gem 240 mg/kg or Lipo 2 mg/kg, PD-1 10 mg/kg or PBS) was “tumor growth could not be stopped”, the “Complete remission rate (%)” value (EMT6 tumor cells [1]; by day 41, Gem 240 mg/kg or Lipo 2 mg/kg, PD-1 10 mg/kg or PBS) was 0% and the “Number of test subjects in complete remission” value (“Number of test subjects” below) (EMT6 tumor cells [1]; by post-transplantation day 41, 8 per group, Gem 240 mg/kg or Lipo 2 mg/kg once/3W tail, PD-1 10 mg/kg or PBS twice/3W i.p.) was 0. For the same molecule, the “Tumor volume mean value (mm^3)” value (EMT6 tumor cells [1]; day 6 after transplantation, Gem 240 mg/kg or Lipo 2 mg/kg, PD-1 10 mg/kg or PBS) was 432 mm^3, the “Tumor volume mean value (mm^3)” value (EMT6 tumor cells [1]; day 9 after transplantation, Gem 240 mg/kg or Lipo 2 mg/kg, PD-1 10 mg/kg or PBS) was 473 mm^3 and the “Tumor volume mean value (mm^3)” value (EMT6 tumor cells [1]; day 13 after transplantation, Gem 240 mg/kg or Lipo 2 mg/kg, PD-1 10 mg/kg or PBS) was 1129 mm^3. The “Tumor volume mean value (mm^3)” value (EMT6 tumor cells [1]; day 16 after transplantation, Gem 240 mg/kg or Lipo 2 mg/kg, PD-1 10 mg/kg or PBS) was 1228 mm^3, the “Tumor volume mean value (mm^3)” value (EMT6 tumor cells [1]; day 20 after transplantation, Gem 240 mg/kg or Lipo 2 mg/kg, PD-1 10 mg/kg or PBS) was 2265 mm^3 and the “Tumor volume mean value (mm^3)” value (EMT6 tumor cells [1]; day 23 after transplantation, Gem 240 mg/kg or Lipo 2 mg/kg, PD-1 10 mg/kg or PBS) was 3521 mm^3. The “animals subjected to euthanasia by the day of test termination” value (EMT6 tumor cells [1]; post-transplantation day 41, Gem 240 mg/kg or Lipo 2 mg/kg, PD-1 10 mg/kg or PBS) was “all animals”, the “percentage of CD8-positive T cells in the tumor (in words)” value [2] was “not changed” and the “tumor growth inhibitory effect (in words)” value (EMT6 tumor cells [3]; Gem 240 mg/kg or Lipo 1 mg/kg, PD-L1 or Iso antibody 10 mg/kg) was “tumor growth could not be stopped”. The Median survival (EMT6 tumor cells [3]; Kaplan-Meier, euthanasia at tumor volume >10% of body weight, Gem 240 mg/kg or Lipo 1 mg/kg, PD-L1 or Iso antibody 10 mg/kg) was 20, the “Complete remission rate (%)” value (EMT6 tumor cells [3]; by day 41, Gem 240 mg/kg or Lipo 1 mg/kg, PD-L1 or Iso antibody 10 mg/kg) was 0% and the “Number of test subjects” value (EMT6 tumor cells [3]; by post-transplantation day 41, 8 per group, Gem 240 mg/kg or Lipo 1 mg/kg once/3W tail, PD-L1 or Iso antibody 10 mg/kg twice/3W i.p.) was 0. The “test subjects subjected to euthanasia by the day of test termination” value (EMT6 tumor cells [3]; post-transplantation day 41, Gem 240 mg/kg or Lipo 1 mg/kg, PD-L1 or Iso antibody 10 mg/kg) was “all test subjects”, the “effect of prolonging the survival time (in words)” value (EMT6 tumor cells [3]; single agents vs Group 1, combinations vs same drug + Iso antibody, Gem 240 mg/kg or Lipo 1 mg/kg, PD-L1 10 mg/kg) was “No significant prolongation” and the “Median survival Percentage (control group / comparative group)” value (EMT6 tumor cells [4]; [5]) was 1.40. The “tumor growth inhibitory effect (in words)” value (EMT6 tumor cells [4]; [5]) was “tumor growth could not be stopped”, the Median survival (EMT6 tumor cells [4]; Kaplan-Meier, euthanasia at tumor volume >10% of body weight, Gem 240 mg/kg or Lipo 1 mg/kg, CTLA-4 10 mg/kg or PBS) was 29.5 and the “Complete remission rate (%)” value (EMT6 tumor cells [4]; by day 52, Gem 240 mg/kg or Lipo 1 mg/kg, CTLA-4 10 mg/kg or PBS) was 0%. The “Number of test subjects” value (EMT6 tumor cells [4]; by post-transplantation day 52, 8 per group, Gem 240 mg/kg or Lipo 1 mg/kg once/3W tail, CTLA-4 10 mg/kg or PBS twice/3W i.p.) was 0, the “test subjects subjected to euthanasia by the day of test termination” value (EMT6 tumor cells [4]; post-transplantation day 52, out of 8, Gem 240 mg/kg or Lipo 1 mg/kg, CTLA-4 10 mg/kg or PBS) was “All test subjects” and the “Log-rank Test Determination” value (EMT6 tumor cells [4]; single agents vs 5% Glu + PBS, combinations vs same drug + PBS, Gem 240 mg/kg or Lipo 1 mg/kg, CTLA-4 10 mg/kg) was “b (“b” indicates p<0.001)”. For the same molecule, the “effect of prolonging the survival time (in words)” value (EMT6 tumor cells [4]; single agents vs Group 1, combinations vs same drug + PBS, Gem 240 mg/kg or Lipo 1 mg/kg, CTLA-4 10 mg/kg) was “statistically significant effect”.
